{"source": "paper PMC8800111", "about": "(The Journal of Biological Chemistry, 2021)", "format_in_all_cases": "cell-based", "key": {"[1]": {"target": "proteins of U3A human fibrosarcoma cells (4462 proteins detected) (Homo sapiens, UniProt O00232)", "conditions": "protein PSMD12; U3A cells"}, "[2]": {"target": "proteins of U3A human fibrosarcoma cells (4462 proteins detected) (Homo sapiens, UniProt O15498)", "sequence (O15498 whole entry)": "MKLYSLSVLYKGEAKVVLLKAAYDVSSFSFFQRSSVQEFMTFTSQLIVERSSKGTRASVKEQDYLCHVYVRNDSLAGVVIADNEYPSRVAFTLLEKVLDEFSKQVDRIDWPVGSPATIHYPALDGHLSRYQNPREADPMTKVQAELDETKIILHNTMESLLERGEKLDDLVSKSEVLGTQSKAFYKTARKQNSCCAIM", "conditions": "protein YKT6; U3A, 10 μM, 2 h"}, "[3]": {"target": "proteins of U3A human fibrosarcoma cells (4462 proteins detected) (Homo sapiens, UniProt O75400)", "conditions": "protein PRPF40A; U3A cells"}, "[4]": {"target": "proteins of U3A human fibrosarcoma cells (4462 proteins detected) (Homo sapiens, UniProt P05388)", "conditions": "protein RPLP0; RPLP0P6; U3A cells"}, "[5]": {"target": "proteins of U3A human fibrosarcoma cells (4462 proteins detected) (Homo sapiens, UniProt P08758)", "conditions": "protein ANXA5, U3A cells"}, "[6]": {"target": "proteins of U3A human fibrosarcoma cells (4462 proteins detected) (Homo sapiens, UniProt P27694)", "sequence (P27694 whole entry)": "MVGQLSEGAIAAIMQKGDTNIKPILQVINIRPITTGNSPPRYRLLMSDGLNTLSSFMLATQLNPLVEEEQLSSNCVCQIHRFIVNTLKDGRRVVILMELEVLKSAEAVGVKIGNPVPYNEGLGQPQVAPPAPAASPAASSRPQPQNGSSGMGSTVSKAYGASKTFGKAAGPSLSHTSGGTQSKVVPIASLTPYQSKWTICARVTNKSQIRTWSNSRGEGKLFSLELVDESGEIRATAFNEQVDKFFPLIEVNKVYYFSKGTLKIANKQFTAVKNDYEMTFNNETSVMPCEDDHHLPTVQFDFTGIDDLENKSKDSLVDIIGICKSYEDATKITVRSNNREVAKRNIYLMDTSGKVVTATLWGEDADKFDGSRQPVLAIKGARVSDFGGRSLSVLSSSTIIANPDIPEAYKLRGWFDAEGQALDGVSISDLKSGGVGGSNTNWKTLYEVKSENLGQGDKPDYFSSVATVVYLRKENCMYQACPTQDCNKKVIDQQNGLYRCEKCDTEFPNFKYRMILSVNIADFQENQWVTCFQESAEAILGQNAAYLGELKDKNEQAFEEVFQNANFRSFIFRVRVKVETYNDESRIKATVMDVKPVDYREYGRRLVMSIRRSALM", "conditions": "protein RPA1; U3A cells"}, "[7]": {"target": "proteins of U3A human fibrosarcoma cells (4462 proteins detected) (Homo sapiens, UniProt P30086)", "conditions": "protein PEBP1, U3A cells"}, "[8]": {"target": "proteins of U3A human fibrosarcoma cells (4462 proteins detected) (Homo sapiens, UniProt P37837)", "sequence (P37837 whole entry)": "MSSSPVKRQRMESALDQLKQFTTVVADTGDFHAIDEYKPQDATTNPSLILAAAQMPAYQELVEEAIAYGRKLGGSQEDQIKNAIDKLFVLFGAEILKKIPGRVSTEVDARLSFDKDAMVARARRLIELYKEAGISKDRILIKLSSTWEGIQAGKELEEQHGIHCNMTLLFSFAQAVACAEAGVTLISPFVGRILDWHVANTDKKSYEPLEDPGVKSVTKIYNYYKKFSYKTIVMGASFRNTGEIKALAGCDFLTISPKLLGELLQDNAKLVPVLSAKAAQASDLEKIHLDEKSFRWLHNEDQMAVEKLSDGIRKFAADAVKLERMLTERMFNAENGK", "conditions": "protein TALDO1, U3A cells"}, "[9]": {"target": "proteins of U3A human fibrosarcoma cells (4462 proteins detected) (Homo sapiens, UniProt P49441)", "conditions": "protein INPP1, U3A cells"}, "[10]": {"target": "proteins of U3A human fibrosarcoma cells (4462 proteins detected) (Homo sapiens, UniProt P52747)", "conditions": "protein ZNF143; U3A, 10 μM, 2 h"}, "[11]": {"target": "proteins of U3A human fibrosarcoma cells (4462 proteins detected) (Homo sapiens, UniProt Q13541)", "conditions": "protein EIF4EBP1, U3A cells"}, "[12]": {"target": "proteins of U3A human fibrosarcoma cells (4462 proteins detected) (Homo sapiens, UniProt Q14161)", "conditions": "protein GIT2; soluble abundance after heat, U3A cells"}, "[13]": {"target": "proteins of U3A human fibrosarcoma cells (4462 proteins detected) (Homo sapiens, UniProt Q15382)", "conditions": "protein RHEB; U3A, 10 μM, 2 h"}, "[14]": {"target": "proteins of U3A human fibrosarcoma cells (4462 proteins detected) (Homo sapiens, UniProt Q16666)", "conditions": "protein IFI16; soluble abundance after heat, U3A cells"}, "[15]": {"target": "proteins of U3A human fibrosarcoma cells (4462 proteins detected) (Homo sapiens, UniProt Q86WQ0)", "sequence (Q86WQ0 whole entry)": "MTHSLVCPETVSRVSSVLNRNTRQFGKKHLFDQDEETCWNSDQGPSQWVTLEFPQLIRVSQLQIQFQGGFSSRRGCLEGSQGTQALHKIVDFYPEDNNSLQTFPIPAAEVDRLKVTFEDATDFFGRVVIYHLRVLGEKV", "conditions": "protein NR2C2AP, U3A cells"}, "[16]": {"target": "proteins of U3A human fibrosarcoma cells (4462 proteins detected) (Homo sapiens, UniProt Q8IWW6)", "conditions": "protein ARHGAP12; soluble abundance after heat, U3A cells"}, "[17]": {"target": "proteins of U3A human fibrosarcoma cells (4462 proteins detected) (Homo sapiens, UniProt Q8N129)", "conditions": "protein CNPY4, U3A cells"}, "[18]": {"target": "proteins of U3A human fibrosarcoma cells (4462 proteins detected) (Homo sapiens, UniProt Q8N163)", "conditions": "protein CCAR2; U3A cells"}, "[19]": {"target": "proteins of U3A human fibrosarcoma cells (4462 proteins detected) (Homo sapiens, UniProt Q8WUA7)", "sequence (Q8WUA7 whole entry)": "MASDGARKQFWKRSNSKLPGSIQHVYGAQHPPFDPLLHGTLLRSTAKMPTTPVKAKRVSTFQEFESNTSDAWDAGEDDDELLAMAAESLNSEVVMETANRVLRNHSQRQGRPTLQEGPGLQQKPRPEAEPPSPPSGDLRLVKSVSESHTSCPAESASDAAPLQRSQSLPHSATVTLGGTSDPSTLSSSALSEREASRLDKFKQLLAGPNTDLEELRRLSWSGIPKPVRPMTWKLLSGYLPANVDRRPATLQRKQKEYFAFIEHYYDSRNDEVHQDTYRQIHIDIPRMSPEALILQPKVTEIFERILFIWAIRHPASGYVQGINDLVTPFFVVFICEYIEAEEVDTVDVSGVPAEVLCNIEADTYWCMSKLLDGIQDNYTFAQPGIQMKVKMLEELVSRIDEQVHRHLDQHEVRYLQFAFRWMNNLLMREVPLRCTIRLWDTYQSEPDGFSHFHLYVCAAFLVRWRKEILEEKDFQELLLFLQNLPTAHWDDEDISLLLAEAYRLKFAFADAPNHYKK", "conditions": "protein TBC1D22A; soluble abundance after heat, U3A cells"}, "[20]": {"target": "proteins of U3A human fibrosarcoma cells (4462 proteins detected) (Homo sapiens, UniProt Q96SN8)", "conditions": "protein CDK5RAP2; U3A, 10 μM, 2 h"}, "[21]": {"target": "proteins of U3A human fibrosarcoma cells (4462 proteins detected) (Homo sapiens, UniProt Q9BVS5)", "conditions": "protein TRMT61B; soluble abundance after heat, U3A cells"}, "[22]": {"target": "proteins of U3A human fibrosarcoma cells (4462 proteins detected) (Homo sapiens, UniProt Q9C0E2)", "sequence (Q9C0E2 whole entry)": "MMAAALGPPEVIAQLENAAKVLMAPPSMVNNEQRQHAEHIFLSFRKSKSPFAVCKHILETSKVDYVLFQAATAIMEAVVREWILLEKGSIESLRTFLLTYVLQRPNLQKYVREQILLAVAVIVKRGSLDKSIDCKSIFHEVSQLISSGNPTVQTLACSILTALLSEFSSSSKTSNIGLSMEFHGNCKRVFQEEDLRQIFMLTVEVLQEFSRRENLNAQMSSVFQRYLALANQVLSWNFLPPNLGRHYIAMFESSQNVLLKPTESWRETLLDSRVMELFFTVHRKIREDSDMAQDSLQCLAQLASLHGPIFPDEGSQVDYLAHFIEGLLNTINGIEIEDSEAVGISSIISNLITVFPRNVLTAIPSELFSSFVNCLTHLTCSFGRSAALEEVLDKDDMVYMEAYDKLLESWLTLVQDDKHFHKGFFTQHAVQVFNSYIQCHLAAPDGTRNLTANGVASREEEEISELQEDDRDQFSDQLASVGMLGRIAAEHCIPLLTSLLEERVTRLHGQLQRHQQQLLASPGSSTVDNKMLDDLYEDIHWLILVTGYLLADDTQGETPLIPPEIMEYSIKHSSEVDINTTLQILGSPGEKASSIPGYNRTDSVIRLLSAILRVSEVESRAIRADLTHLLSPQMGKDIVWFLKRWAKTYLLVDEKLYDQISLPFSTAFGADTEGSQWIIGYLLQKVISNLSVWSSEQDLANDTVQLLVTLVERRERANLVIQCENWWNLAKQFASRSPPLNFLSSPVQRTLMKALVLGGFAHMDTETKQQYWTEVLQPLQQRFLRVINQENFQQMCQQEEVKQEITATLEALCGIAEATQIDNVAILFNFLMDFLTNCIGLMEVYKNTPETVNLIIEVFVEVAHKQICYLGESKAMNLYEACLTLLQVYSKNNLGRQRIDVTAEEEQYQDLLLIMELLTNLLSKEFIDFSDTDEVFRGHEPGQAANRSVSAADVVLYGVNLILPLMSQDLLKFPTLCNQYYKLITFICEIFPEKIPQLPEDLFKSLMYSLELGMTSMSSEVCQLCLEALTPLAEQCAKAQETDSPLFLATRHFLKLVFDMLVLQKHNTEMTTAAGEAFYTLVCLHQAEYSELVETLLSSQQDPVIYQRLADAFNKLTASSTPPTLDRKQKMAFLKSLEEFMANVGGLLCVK", "conditions": "protein XPO4; soluble abundance after heat, U3A cells"}, "[23]": {"target": "proteins of U3A human fibrosarcoma cells (4462 proteins detected) (Homo sapiens, UniProt Q9H9Y6)", "sequence (Q9H9Y6 whole entry)": "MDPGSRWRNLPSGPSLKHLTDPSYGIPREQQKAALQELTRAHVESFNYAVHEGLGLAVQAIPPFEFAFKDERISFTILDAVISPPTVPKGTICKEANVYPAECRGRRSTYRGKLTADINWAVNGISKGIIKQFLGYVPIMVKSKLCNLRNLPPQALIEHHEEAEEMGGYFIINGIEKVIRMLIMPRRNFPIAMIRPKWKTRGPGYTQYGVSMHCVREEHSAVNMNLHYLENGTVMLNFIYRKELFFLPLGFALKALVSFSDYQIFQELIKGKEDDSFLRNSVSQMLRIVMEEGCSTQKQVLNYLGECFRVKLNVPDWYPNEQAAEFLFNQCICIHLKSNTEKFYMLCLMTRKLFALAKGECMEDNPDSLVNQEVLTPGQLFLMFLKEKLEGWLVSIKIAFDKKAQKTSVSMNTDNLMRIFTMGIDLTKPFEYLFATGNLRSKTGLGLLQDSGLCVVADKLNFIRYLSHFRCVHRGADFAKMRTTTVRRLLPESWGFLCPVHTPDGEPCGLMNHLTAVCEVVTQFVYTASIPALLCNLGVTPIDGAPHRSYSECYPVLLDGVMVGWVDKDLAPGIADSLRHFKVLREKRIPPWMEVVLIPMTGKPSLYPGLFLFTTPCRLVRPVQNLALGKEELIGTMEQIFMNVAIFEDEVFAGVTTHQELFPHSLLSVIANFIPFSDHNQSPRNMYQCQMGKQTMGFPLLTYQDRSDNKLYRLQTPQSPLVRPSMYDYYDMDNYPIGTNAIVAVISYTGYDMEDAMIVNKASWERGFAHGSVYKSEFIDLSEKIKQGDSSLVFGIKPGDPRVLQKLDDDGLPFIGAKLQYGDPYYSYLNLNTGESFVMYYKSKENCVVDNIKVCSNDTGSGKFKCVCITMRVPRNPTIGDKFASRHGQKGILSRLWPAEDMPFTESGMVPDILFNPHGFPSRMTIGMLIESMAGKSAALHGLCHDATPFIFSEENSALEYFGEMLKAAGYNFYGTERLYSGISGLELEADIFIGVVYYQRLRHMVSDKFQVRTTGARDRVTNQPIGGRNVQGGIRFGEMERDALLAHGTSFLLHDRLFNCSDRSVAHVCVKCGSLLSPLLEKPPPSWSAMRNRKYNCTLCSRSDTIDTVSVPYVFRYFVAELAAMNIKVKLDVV", "conditions": "protein POLR1B; soluble abundance after heat, U3A cells"}, "[24]": {"target": "proteins of U3A human fibrosarcoma cells (4462 proteins detected) (Homo sapiens, UniProt Q9NYV4)", "conditions": "protein CDK12; U3A cells"}, "[25]": {"target": "proteins of U3A human fibrosarcoma cells (4462 proteins detected) (Homo sapiens, UniProt Q9P2K3)", "conditions": "protein RCOR3; U3A cells"}, "[26]": {"target": "proteins of U3A human fibrosarcoma cells (4462 proteins detected) (Homo sapiens, UniProt Q9UL16)", "conditions": "protein CFAP45, U3A cells"}, "[27]": {"target": "proteins of U3A human fibrosarcoma cells (4462 proteins detected) (Homo sapiens, UniProt Q9UNZ2)", "conditions": "protein NSFL1C, U3A cells"}, "[28]": {"target": "proteins of U3A human fibrosarcoma cells (4462 proteins detected) (Homo sapiens, UniProt Q9Y3A4)", "sequence (Q9Y3A4 whole entry)": "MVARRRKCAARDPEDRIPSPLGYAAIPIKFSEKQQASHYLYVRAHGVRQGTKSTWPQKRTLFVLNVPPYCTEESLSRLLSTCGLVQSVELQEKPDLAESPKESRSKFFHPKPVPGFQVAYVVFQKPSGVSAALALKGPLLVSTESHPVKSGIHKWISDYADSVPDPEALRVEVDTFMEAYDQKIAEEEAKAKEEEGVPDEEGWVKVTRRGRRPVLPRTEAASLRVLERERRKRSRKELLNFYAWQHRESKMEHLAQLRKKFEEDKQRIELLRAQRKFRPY", "conditions": "protein RRP7A; U3A cells"}, "[29]": {"target": "proteins of U3A human fibrosarcoma cells (4462 proteins detected) (Homo sapiens, UniProt Q9Y5P4)", "sequence (Q9Y5P4 whole entry)": "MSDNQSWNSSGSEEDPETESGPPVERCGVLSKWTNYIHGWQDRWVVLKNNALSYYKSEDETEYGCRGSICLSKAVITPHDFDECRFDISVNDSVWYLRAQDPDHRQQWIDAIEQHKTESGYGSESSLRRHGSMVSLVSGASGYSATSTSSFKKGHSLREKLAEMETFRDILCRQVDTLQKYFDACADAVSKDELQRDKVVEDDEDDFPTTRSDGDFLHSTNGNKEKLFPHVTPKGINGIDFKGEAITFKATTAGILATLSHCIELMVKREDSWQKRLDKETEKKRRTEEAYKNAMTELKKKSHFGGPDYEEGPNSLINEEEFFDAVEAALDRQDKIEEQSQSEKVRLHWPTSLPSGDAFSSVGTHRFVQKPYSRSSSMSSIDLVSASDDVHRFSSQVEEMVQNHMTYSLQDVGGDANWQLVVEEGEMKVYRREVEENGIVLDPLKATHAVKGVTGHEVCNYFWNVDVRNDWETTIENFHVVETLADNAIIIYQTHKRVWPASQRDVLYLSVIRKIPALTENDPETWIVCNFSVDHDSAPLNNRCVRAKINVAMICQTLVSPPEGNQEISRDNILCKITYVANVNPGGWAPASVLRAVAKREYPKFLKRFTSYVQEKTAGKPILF", "conditions": "protein COL4A3BP; soluble abundance after heat, U3A cells"}}, "data": [{"smiles": "CCc1nc(N)nc(N)c1-c1ccc(Cl)cc1", "note": "[pyrimethamine]", "values": [{"measurement": "Log2 (PYR/DMSO)", "setting": "[1]", "result": 0.18}, {"measurement": "Log2 (PYR/DMSO), YKT6", "setting": "[2]", "result": 0.27}, {"measurement": "Log2 (PYR/DMSO)", "setting": "[3]", "result": 0.16}, {"measurement": "Log2 (PYR/DMSO)", "setting": "[4]", "result": 0.23}, {"measurement": "Log2 (PYR/DMSO)", "setting": "[5]", "result": -0.04}, {"measurement": "Log2 (PYR/DMSO)", "setting": "[6]", "result": 0.16}, {"measurement": "Log2 (PYR/DMSO)", "setting": "[7]", "result": -0.04}, {"measurement": "Log2 (PYR/DMSO)", "setting": "[8]", "result": -0.04}, {"measurement": "Log2 (PYR/DMSO)", "setting": "[9]", "result": -0.04}, {"measurement": "Log2 (PYR/DMSO), ZNF143", "setting": "[10]", "result": -0.16}, {"measurement": "Log2 (PYR/DMSO)", "setting": "[11]", "result": -0.04}, {"measurement": "Log2 (PYR/DMSO)", "setting": "[12]", "result": 0.14}, {"measurement": "Log2 (PYR/DMSO), RHEB", "setting": "[13]", "result": -0.45}, {"measurement": "Log2 (PYR/DMSO)", "setting": "[14]", "result": 0.13}, {"measurement": "Log2 (PYR/DMSO)", "setting": "[15]", "result": -0.03}, {"measurement": "Log2 (PYR/DMSO)", "setting": "[16]", "result": 0.13}, {"measurement": "Log2 (PYR/DMSO)", "setting": "[17]", "result": -0.04}, {"measurement": "Log2 (PYR/DMSO)", "setting": "[18]", "result": 0.18}, {"measurement": "Log2 (PYR/DMSO)", "setting": "[19]", "result": 0.15}, {"measurement": "Log2 (PYR/DMSO), CDK5RAP2", "setting": "[20]", "result": -0.21}, {"measurement": "Log2 (PYR/DMSO)", "setting": "[21]", "result": 0.13}, {"measurement": "Log2 (PYR/DMSO)", "setting": "[22]", "result": 0.13}, {"measurement": "Log2 (PYR/DMSO)", "setting": "[23]", "result": 0.13}, {"measurement": "Log2 (PYR/DMSO)", "setting": "[24]", "result": 0.20}, {"measurement": "Log2 (PYR/DMSO)", "setting": "[25]", "result": 0.21}, {"measurement": "Log2 (PYR/DMSO)", "setting": "[26]", "result": -0.04}, {"measurement": "Log2 (PYR/DMSO)", "setting": "[27]", "result": -0.04}, {"measurement": "Log2 (PYR/DMSO)", "setting": "[28]", "result": 0.19}, {"measurement": "Log2 (PYR/DMSO)", "setting": "[29]", "result": 0.13}]}]}
